This is an account of results in PMC8012331, “Drug-induced hepatic steatosis in absence of severe mitochondrial dysfunction in HepaRG cells: proof of multiple mechanism-based toxicity” (Cell Biology and Toxicology, 2020).

The subject of series [1] is HepaRG cells. In words: Neutral lipids with Nile red in HepaRG cells. Conditions: 4 days, selected concentrations (ATP loss < 30%, not above 100 × Cmax), vs control. Here is the method:
(§1) Briefly, HepaRG cells were seeded in 96-well plates at a density of 2.6 × 10^4 cells/cm^2 and were first incubated in William’s E medium supplemented with 10% FBS (50% FBS from Eurobio and 50% FBS from GE Healthcare), 100 U/mL penicillin, 100 μg/mL streptomycin, 2 mM glutamine, 5 μg/mL insulin, and 50 μM hydrocortisone hemisuccinate. […] During this 1-month period, the culture medium was renewed three times a week. […] HepaRG cells were next cultured in the same FBS/DMSO conditions and incubated for 4 days with each drug at different concentrations. Culture medium was renewed every day and all investigations were performed after 96 h (i.e., 24 h after the fourth treatment). These investigations were mostly performed in 96-well plates except for western blot analysis, for which 6-well plates were used. Experiments were carried out on passages 9 to 16. All drugs (except DPEN), etomoxir, lomitapide, tunicamycin, thapsigargin, and TUDCA were dissolved in DMSO. DPEN was dissolved in water.
(§2) Cells were then incubated with PBS containing 0.1 μg/mL Nile red for 30 min and washed once. […] For each well, four pictures were taken at a magnification of × 20 and analyzed with Columbus software (PerkinElmer) for quantification. These pictures were always taken in four different areas around the center of each well, and these areas were the same from one well to another, as programmed by the Columbus software. This software was also designed to count only living cells after exclusion of dying cells harboring nuclei with abnormal shape or altered Hoechst intensity. […] Neutral lipids were then normalized per number of nuclei and expressed relative to control cells. Examples of images used for neutral lipid quantification are shown in Supplementary Fig. 2.

The subject of series [2] is de novo lipogenesis (DNL). In words: DNL from [2-14C]acetic acid in HepaRG cells. It counts as cell-based, human. The following applies: 4 days, vs control. The method, then: (§3) Experiments were carried out on passages 9 to 16. […] DPEN was dissolved in water.
DNL was assessed by measuring newly synthesized radiolabeled lipids from [2-^14C]acetic acid, using a protocol adapted from Byrne et al. ([2014]). Briefly, culture medium was removed and cells were washed with warm PBS. Next, cells were incubated for 3 h with phenol red-free William’s E medium containing 1% fatty acid-free BSA, [2-^14C]acetic acid (1850 Bq per well, corresponding to 19.4 pM) and 50 μM cold acetic acid. Medium was then gently removed and cells were washed with warm PBS before adding a mix of hexane/isopropanol (3:2; v/v). Cell culture plates were sealed and incubated for 1 h at room temperature for lipid extraction. After transfer of the plate content in 200-μL microtubes, hexane and PBS were added to have a hexane/isopropanol/PBS ratio of 6:2:3 (v/v/v). Microtubes were then centrifuged at 1000×g for 5 min and radiolabeled lipids were counted in the upper phase with a Tri-Carb 4910TR liquid scintillation counter (PerkinElmer). Results were normalized to total protein content and expressed in comparison to control cells.

For series [3], the system named is ATP citrate lyase (ACLY). The series is described as follows: RT-qPCR ACLY mRNA in HepaRG cells. It counts as cell-based, human. The following applies: 4 days, vs control. Here is the method:
(§4) Total RNA was extracted with the Nucleospin RNA isolation system purchased from Macherey-Nagel (Düren, Germany), which included a DNase treatment step. Quantification of isolated RNAs was assessed using a Nanodrop 1000 (Thermo Fisher Scientific, Waltham, MA). RNAs were reverse-transcribed into cDNAs using the High-Capacity cDNA Reverse Transcription Kit purchased from Applied Biosystems (Woolston, UK). Gene expression was assessed by real-time quantitative PCR analysis (RT-qPCR) using SYBR Green PCR Master Mix (Applied Biosystems) and a 384-well QuantStudio™ 7 Flex Real-Time PCR System (Thermo Fisher Scientific). Sequences of the primers used to measure gene expression are presented in Supplementary Table 3. Expression of GAPDH was chosen as reference and the 2^−ΔΔCt calculation method was used to express the relative expression of each selected gene.

Series [4] deals with stearoyl-CoA desaturase 1 (hSCD1). In words: RT-qPCR hSCD1 mRNA in HepaRG cells. Conditions: 4 days, vs control. Format: cell-based, human. The method, then: as §4
(In general: Quantitative PCR measures a nucleic acid by following its amplification.)

Series [5] relates to mitochondrial fatty acid oxidation (mtFAO). The series is described as follows: mtFAO with [U-14C]palmitic acid in HepaRG cells. Format: cell-based, human. Conditions: 4 days, vs control. Here is the method: as §3
Results were normalized to total protein content determined using the Pierce BCA assay kit from Thermo Fischer Scientific (Waltham, MA). Results were expressed in comparison to control cells.

The test system of series [6] is apoB secretion. In words: apoB level in culture medium (ELISA), HepaRG cells. The following applies: 4 days; for Effect on apoB secretion: culture medium, vs control. It counts as cell-based, human. The method, then:
as §3
Twenty-four hours after the last treatment, cell supernatants were removed and stored at − 80 °C until use for apolipoprotein measurement. ApoB level was measured using the Human Apolipoprotein B ELISA^pro kit from Mabtech (Nacka Strand, Sweden), according to the manufacturer’s instructions. Briefly, 50 μL of samples were diluted 2× in Apo ELISA buffer before a 2-h incubation in the precoated strip plates provided in the kit. The plates were washed and incubated 1 h with the biotinylated monoclonal anti-human apoB (LDL-11-biotin) antibody. The plates were then washed and incubated 1 h with a streptavidin–horseradish peroxidase conjugated antibody. After another washing, 3,3′,5,5′-tetramethylbenzidine (TMB) was used as substrate for 15 min before adding a stop solution. Absorbance at 450 nm was then measured using a POLARstar Omega microplate reader (BMG Labtech, Ortenberg). ApoB level was calculated utilizing a four-parameter standard curve, and normalized to the total cellular protein content and expressed in comparison to control cells.
(An ELISA detects its analyte on a solid surface through an enzyme-linked reagent.)

Series [7] has as its system HepaRG cells. The series is described as follows: Cellular ATP level (CellTiter-Glo) in HepaRG cells. Format: cell-based, human. The following applies: 4 days, vs controls. The method, then:
Cellular ATP level was measured using the CellTiter-Glo® Luminescent Cell Viability assay purchased from Promega (Charbonnières, France), according to the manufacturer’s instructions. Briefly, control and treated HepaRG cells were first washed with warm PBS and kept for 30 min at room temperature in phenol red-free William’s E medium. Cells were next incubated with the CellTiter-Glo® reagent for 10 min at room temperature. Cells were then transferred in opaque-walled multiwell plates and the luminescent signal was quantified using a POLARstar Omega microplate reader (BMG Labtech, Ortenberg, Germany). Results were expressed in comparison to control cells.
(In general: In ATP-based viability assays light output follows the ATP content of the culture.)

The nature of series [8]: Maximum plasma concentration (Cmax) in patients. It counts as in vivo, human.
In series [9] the test system is fatty acid translocase (FAT, also known as CD36). The series is described as follows: RT-qPCR FAT/CD36 mRNA in HepaRG cells. Format: cell-based, human. Conditions: 4 days. The method, then: as §4
The conditions of series [10]: cited from earlier work; for Cmax: read-out: Maximum plasma concentration (Cmax) in patients.
For series [11] the following is noted: treated patients, cited from earlier work.
Series [12] relates to primary human hepatocytes (PHH). The series is described as follows: Neutral lipids with Nile red in primary human hepatocytes. Format: cell-based. The following applies: 4 days. The method, then: Primary human hepatocytes (PHH) were purchased from Biopredic International (Saint-Grégoire, France). Cells were seeded by the supplier in coated 96-well plates at a density of 5 × 10^4 cells/well. Upon receipt, culture medium was removed and replaced by William’s E medium supplemented as previously described for HepaRG cell differentiation, except for DMSO set at 1%. After 2–3 days, cells were treated as for HepaRG cells. For HepaRG cells and PHH, cells were always maintained in incubators at 37 °C with 5% CO2 and saturating humidity.
as §2

The subject of series [13] is apoC3 secretion. The series is described as follows: apoC3 level in culture medium (HTRF), HepaRG cells. Format: cell-based, human. Conditions: 4 days. Here is the method: as §1
Apolipoprotein C3 (apoC3) level was measured using the Human Apolipoprotein C3 kit from Cisbio Bioassays (Codolet, France), according to the manufacturer’s instructions. Briefly, 10 μL of supernatants was incubated with two different specific anti-human apoC3 antibodies, one donor and one acceptor. The detection principle of apoC3 is based on HTRF® (Homogeneous Time Resolved Fluorescence), a time-resolved FRET (Förster Resonance Energy Transfer) technology. After 2 h of incubation, light emission was measured with the Infinite F Nano+ microplate reader (Tecan, Männedorf, Switzerland). ApoC3 level was calculated utilizing standard curve, based on the ratio of A665 nm/A615 nm, and normalized to the total cellular protein content. Results were expressed in comparison to control cells.

The subject of series [14] is apolipoprotein B (APOB). In words: RT-qPCR APOB mRNA in HepaRG cells. Format: cell-based, human. Conditions: 4 days, vs control. The method, then: as §4
Series [15] has as its system apolipoprotein C3 (APOC3). The series is described as follows: RT-qPCR APOC3 mRNA in HepaRG cells. Format: cell-based, human. Conditions: 4 days, vs control. The method, then:
as §4

The test system of series [16] is microsomal triglyceride transfer protein (MTTP). In words: RT-qPCR MTTP mRNA in HepaRG cells. It counts as cell-based, human. The following applies: 4 days, vs control. Here is the method:
as §4

For series [17], the system named is angiopoietin-like 3 (ANGPTL3). In words: RT-qPCR ANGPTL3 mRNA in HepaRG cells. Conditions: 4 days, vs control. Format: cell-based, human. The method, then:
as §4

In series [18] the test system is ERN1 (IRE1α). In words: RT-qPCR ERN1 mRNA in HepaRG cells. Format: cell-based, human. The following applies: 4 days, vs control. Here is the method: as §4
Where [19] appears, read: high dose chemotherapy, ref Holmboe L et al., Br J Clin Pharmacol. 2012;73(1):106-14.
The mark [20] stands for this setting: rheumatoid arthritis treatment, ref Hoekstra M et al., J Rheumatol. 2004;31(4):645-8.

“And” between values parts separate entries of the source, which are not always exact repeats. Equal entries are not always repeated. Where two headings read alike, the source gives them in different places.

For the compound `CCCCc1oc2ccccc2c1C(=O)c1cc(I)c(OCCN(CC)CC)c(I)c1` [AMIO, amiodarone], the “Accumulation of neutral lipids (steatosis)” value (“Accumulation” below) in [1] is recorded as “significant accumulation of neutral lipids”. The “Effect on DNL” value in series [2] is given as “increased DNL”. In series [3], the “ACLY mRNA level” value is recorded as “enhanced mRNA level”. The “hSCD1 mRNA level” value in series [4] is “enhanced mRNA level”.
As to `CN(Cc1cnc2nc(N)nc(N)c2n1)c1ccc(C(=O)N[C@@H](CCC(=O)O)C(=O)O)cc1` [METHO, methotrexate], in series [1], the “Accumulation” value is “significant accumulation of neutral lipids”. Also, the “Effect on mtFAO” value in [5] is recorded as “significantly enhance mtFAO”. Further, the “Effect on DNL” value in [2] is recorded as “curb this metabolic pathway”. Moreover, the “Effect on apoB secretion” value in series [6] is reported as “did not reduce”. Further, the “Loss of cellular ATP relative to the maximum concentration selected for the study” value in [7] is reported as 150 µM (loss of cellular ATP below 30% of the controls for this concentration, as shown in Supp. fig 1). Also, the “Concentration corresponding to 100xCmax” value in [8] (from Cmax of high dose chemotherapy) amounted to 150000 µM; in [8] (from Cmax of rheumatoid arthritis treatment) it was 130 µM. The “Increase of FAT/CD36 mRNA level” value was 60% in series [9] (50 μM) and 55% in [9] (150 μM). Besides, the “Maximum plasma concentration (Cmax) in patients” value in series [10] (setting [19]) was at most 680000 ng/mL; in [10] (setting [20]) it was at most 594 ng/mL. Further, the Cmax in series [10] (setting [19]) is at most 1500 µM; in [10] (setting [20]) it was at most 1.3 µM. For the same compound, in [11] (ref Schulz M et al., Crit Care 2012 ;16(4):R136, listed as Methotrexate (METHO)), the “Therapeutic blood (or plasma) concentration in patients” value was 0.04 mg/L and 0.09 µM.
Consider `Cc1c(C)c2c(c(C)c1O)CCC(C)(COc1ccc(CC3SC(=O)NC3=O)cc1)O2` (stereo not drawn) [TRO, troglitazone], for which the “Accumulation” value in [1] was “significant accumulation of neutral lipids”. In series [12], the “Steatosis in PHH batches (six batches tested)” value was “induced steatosis in only one PHH batch”. Moreover, in series [5], the “Effect on mtFAO” value was “significantly enhance mtFAO”. Also, the “Effect on DNL” value in series [2] is “curb this metabolic pathway”. In [6] (45 and 47.5 μM), the “Secretion of apoB” value is “less than 10 % of the respective control”. In addition, the “Effect on apoB secretion” value in [6] is “reduced the secretion”. Also, in series [13] (45 and 47.5 μM), the “Secretion of apoC3” value is on record as “less than 10 % of the respective control”. The “Effect on apoC3 secretion” value in [13] (culture medium, vs control) is reported as “reduced the secretion”. For the same compound, in series [7], the “Loss of cellular ATP relative to the maximum concentration selected for the study” value is reported as 47.5 µM (loss of cellular ATP above 30% of the controls for higher concentrations, as shown in Supp. fig 1). Besides, the “Concentration corresponding to 100xCmax” value in [8] (worked out from cited Cmax in patients) is listed as 640 µM. Also, in [14], the “APOB mRNA level” value is listed as “nearly abolish the mRNA abundance”. For the same compound, the “APOC3 mRNA level” value in series [15] was “nearly abolish the mRNA abundance”. The “MTTP mRNA level” value in series [16] is “nearly abolish the mRNA abundance”. In addition, the “ANGPTL3 mRNA level” value in series [17] is listed as “nearly abolish the mRNA abundance”. For the same compound, the “ERN1 (IRE1α) mRNA level” value in series [18] is recorded as “enhanced IRE1α mRNA level”. In series [10] (patients, ref given per drug), the “Maximum plasma concentration (Cmax) in patients” value is at most 2830 ng/mL and the Cmax is at most 6.4 µM. Moreover, the “Therapeutic blood (or plasma) concentration in patients” value in [11] (ref Loi CM et al., J Clin Pharmacol 1999;39(9):920-6, Plosker GL and Faulds D. Drugs 1999;57(3):409-438, listed as Troglitazone (TRO)) is 0.90 - 2.82 mg/L and 2.0 - 6.4 µM.
